Patent publication US8399465B2, “Compounds with two fused bicyclic heteroaryl moieties as modulators of leukotriene A4 hydrolase” (Janssen Pharmaceutica NV, priority 2009, dated 2013)
Where a name gives a salt, the structure may show the parent alone.

Tests used:
[1] = target: T1, recombinant human LTA4 hydrolase (rhLTA4H) (Homo sapiens, UniProt P09960); experiment: Recombinant human LTA4 hydrolase assay for LTA4 hydrolase inhibitor activity; type: biochemical; conditions: rhLTA4H, LTB4 by immunoassay; single determination or average of two or more; mark after value = form tested: ′ free base, ″ hydrochloride, ^ formate; read-out: IC50
T1 construct: made in house; host or cells: Spodoptera frugiperda (Sf-9) cells, baculovirus (pFastBac1)
T1 sequence (P09960 1-611): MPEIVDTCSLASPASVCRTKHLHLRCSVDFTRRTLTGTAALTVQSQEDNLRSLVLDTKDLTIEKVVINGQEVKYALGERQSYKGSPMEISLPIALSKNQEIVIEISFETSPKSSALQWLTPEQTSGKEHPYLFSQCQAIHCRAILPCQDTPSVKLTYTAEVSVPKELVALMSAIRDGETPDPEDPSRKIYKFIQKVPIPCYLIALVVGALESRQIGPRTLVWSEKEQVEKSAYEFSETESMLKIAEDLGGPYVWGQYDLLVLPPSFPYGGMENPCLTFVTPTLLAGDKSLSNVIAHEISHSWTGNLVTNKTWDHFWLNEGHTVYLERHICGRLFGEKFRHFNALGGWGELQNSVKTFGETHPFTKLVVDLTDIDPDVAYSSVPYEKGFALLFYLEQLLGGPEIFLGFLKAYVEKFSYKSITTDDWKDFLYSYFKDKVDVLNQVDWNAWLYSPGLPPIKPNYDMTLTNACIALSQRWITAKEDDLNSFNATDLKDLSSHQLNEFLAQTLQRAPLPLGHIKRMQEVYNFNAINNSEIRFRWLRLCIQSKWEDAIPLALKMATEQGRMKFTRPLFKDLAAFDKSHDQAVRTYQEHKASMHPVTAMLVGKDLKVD
Procedure, shortened: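 LTB4 formation, measured by enzyme immunoassay, was the read-out. The enzyme, recombinant human LTA4H expressed in Sf-9 insect cells (10 ng per reaction), was exposed to compound for 10 min at room temperature before hydrolysed-ester LTA4 substrate was added for 30 min. Enzyme-free negatives were included.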

[2] = system: LTB4 production in murine blood (LTA4H); experiment: LTB4 production by calcium ionophore-stimulated murine blood for LTA4H inhibitor activity; type: cell-based, CD-1 mice; conditions: Mus musculus; murine blood diluted 1 in 15, A23187 stimulated; single determination or average; mark after value = form tested: ′ free base, ″ hydrochloride, ^ formate; read-out: IC50
Procedure: Assay 2: LTB4 Production by Calcium Ionophore-Stimulated Murine Blood for LTA4H Inhibitor Activity
CD-1 mice were sacrificed, and blood was collected in heparin-containing syringes by cardiac puncture. […] After the microtiter plate contents were incubated for 15 min at 37° C. in a humidified incubator, calcium ionophore A23187 (Sigma Chemical Co., St. Louis, Mo.) was added to each sample well (final concentration=7 μg/mL). The incubation was continued under the same conditions for an additional 30 min to allow LTB4 formation. The reaction was terminated by centrifugation (833×g, 10 min at 4° C.), and supernatants were analyzed for LTB4 by a commercially available enzyme-linked immunoassay (Cayman Chemical Co.) according to the manufacturer's instructions. Positive controls, under essentially identical conditions but without addition of an inhibitor compound, and negative unstimulated controls, containing all assay components except calcium ionophore, were routinely run in each experiment. […] The values presented here are the result of a single determination or an average of two or more determinations.

SMILES	IC50 [1]	IC50 [2]
O=C1CCCN1C1CCN(Cc2c[nH]c3cc(Oc4nc5ncccc5s4)ccc23)CC1 [Example 20, 1-{1-[6-(Thiazolo[4,5-b]pyridin-2-yloxy)-1H-indol-3-ylmethyl]-piperidin-4-yl}-pyrrolidin-2-one]	2 nM	81 nM
NC(=O)C1CCN(Cc2c[nH]c3cc(Oc4nc5ccccc5s4)ccc23)CC1 [Example 21, 1-[6-(Benzothiazol-2-yloxy)-1H-indol-3-ylmethyl]-piperidine-4-carboxylic acid amide]	5 nM	161 nM
CNC(=O)C1CCN(Cc2c[nH]c3cc(Oc4nc5ccccc5s4)ccc23)CC1 [Example 22, 1-[6-(Benzothiazol-2-yloxy)-1H-indol-3-ylmethyl]-piperidine-4-carboxylic acid methylamide]	2 nM	79 nM
O=C(C1CCN(Cc2c[nH]c3cc(Oc4nc5ccccc5s4)ccc23)CC1)N1CCCC1 [Example 23, {1-[6-(Benzothiazol-2-yloxy)-1H-indol-3-ylmethyl]-piperidin-4-yl}-pyrrolidin-1-yl-methanone]	5 nM	114 nM
O=C(C1CCN(Cc2c[nH]c3cc(Oc4nc5ccccc5s4)ccc23)CC1)N1CCCCC1 [Example 24, {1-[6-(Benzothiazol-2-yloxy)-1H-indol-3-ylmethyl]-piperidin-4-yl}-piperidin-1-yl-methanone]	2 nM	341 nM
O=C(C1CCN(Cc2c[nH]c3cc(Oc4nc5ccccc5s4)ccc23)CC1)N1CCOCC1 [Example 25, {1-[6-(Benzothiazol-2-yloxy)-1H-indol-3-ylmethyl]-piperidin-4-yl}-morpholin-4-yl-methanone]	2 nM	100 nM
CN1CCN(C(=O)C2CCN(Cc3c[nH]c4cc(Oc5nc6ccccc6s5)ccc34)CC2)CC1 [Example 26, {1-[6-(Benzothiazol-2-yloxy)-1H-indol-3-ylmethyl]-piperidin-4-yl}-(4-methyl-piperazin-1-yl)-methanone]	7 nM	188 nM
NC(=O)[C@H]1CCCN(Cc2c[nH]c3cc(Oc4nc5ccccc5s4)ccc23)C1 [Example 27, (3S)-1-[6-(Benzothiazol-2-yloxy)-1H-indol-3-ylmethyl]-piperidine-3-carboxylic acid amide]	19 nM	136 nM
OCC1CCN(Cc2c[nH]c3cc(Oc4nc5ccccc5s4)ccc23)CC1 [Example 28, {1-[6-(Benzothiazol-2-yloxy)-1H-indol-3-ylmethyl]-piperidin-4-yl}-methanol]	15 nM	79 nM
CCOC(=O)NC1CCN(Cc2c[nH]c3cc(Oc4nc5ccccc5s4)ccc23)CC1 [Example 29, {1-[6-(Benzothiazol-2-yloxy)-1H-indol-3-ylmethyl]-piperidin-4-yl}-carbamic acid ethyl ester]	15 nM	234 nM
CC(=O)N[C@H]1C[C@H]2CC[C@@H](C1)N2Cc1c[nH]c2cc(Oc3nc4cccnc4s3)ccc12 [Example 43, meso-endo-N-{8-[6-(Thiazolo[5,4-b]pyridin-2-yloxy)-1H-indol-3-ylmethyl]-8-aza-bicyclo[3.2.1]oct-3-yl}-acetamide]	6 nM	409 nM
CC(=O)N(CC(=O)O)[C@H]1C[C@H]2CC[C@@H](C1)N2Cc1c[nH]c2ccc(Oc3nc4ccccc4s3)cc12 [Example 49, meso-endo-(Acetyl-{8-[5-(benzothiazol-2-yloxy)-1H-indol-3-ylmethyl]-8-aza-bicyclo[3.2.1]oct-3-yl}-amino)-acetic acid]	13 nM	10000 nM

Continued, values first:

IC50 [1]	IC50 [2]	SMILES
11 nM	143 nM	O=C1CCCN1C1CCN(Cc2c[nH]c3cc(Oc4nc5ccccc5s4)ccc23)CC1 [Example 30, 1-{1-[6-(Benzothiazol-2-yloxy)-1H-indol-3-ylmethyl]-piperidin-4-yl}-pyrrolidin-2-one]
55 nM	188 nM	c1ccc2sc(Oc3cnc4c(CN5CCCCC5)c[nH]c4c3)nc2c1 [Example 31, 2-(3-Piperidin-1-ylmethyl-1H-pyrrolo[3,2-b]pyridin-6-yloxy)-benzothiazole]
96 nM	258 nM	c1ccc2sc(Oc3cnc4c(CN5CCOCC5)c[nH]c4c3)nc2c1 [Example 32, 2-(3-Morpholin-4-ylmethyl-1H-pyrrolo[3,2-b]pyridin-6-yloxy)-benzothiazole]
42 nM	1520 nM	NC(=O)C1CCN(Cc2c[nH]c3cc(Oc4nc5ccccc5s4)cnc23)CC1 [Example 33, 1-[6-(Benzothiazol-2-yloxy)-1H-pyrrolo[3,2-b]pyridin-3-ylmethyl]-piperidine-4-carboxylic acid amide]
20 nM	401 nM	c1cnc2nc(Oc3ccc4c(CN5CCc6sc7ccccc7c6C5)c[nH]c4c3)sc2c1 [Example 34, 2-[6-(Thiazolo[4,5-b]pyridin-2-yloxy)-1H-indol-3-ylmethyl]-1,2,3,4-tetrahydro-benzo[4,5]thieno[3,2-c]pyridine formate]
34 nM	234 nM	c1cnc2nc(Oc3ccc4c(CN5CCc6c(sc7ccccc67)C5)c[nH]c4c3)sc2c1 [Example 35, 2-[6-(Thiazolo[4,5-b]pyridin-2-yloxy)-1H-indol-3-ylmethyl]-1,2,3,4-tetrahydro-benzo[4,5]thieno[2,3-c]pyridine]
77 nM	423 nM	Clc1ccc2sc3c(c2c1)CN(Cc1c[nH]c2cc(Oc4nc5ncccc5s4)ccc12)CC3 [Example 36, 8-Chloro-2-[6-(thiazolo[4,5-b]pyridin-2-yloxy)-1H-indol-3-ylmethyl]-1,2,3,4-tetrahydro-benzo[4,5]thieno[3,2-c]pyridine formate]
8 nM	310 nM	Clc1ccc2sc3c(c2c1)CCN(Cc1c[nH]c2cc(Oc4nc5ncccc5s4)ccc12)C3 [Example 37, 6-Chloro-2-[6-(thiazolo[4,5-b]pyridin-2-yloxy)-1H-indol-3-ylmethyl]-1,2,3,4-tetrahydro-benzo[4,5]thieno[2,3-c]pyridine formate]
29 nM	350 nM	Fc1ccc2sc3c(c2c1)CN(Cc1c[nH]c2cc(Oc4nc5ncccc5s4)ccc12)CC3 [Example 38, 8-Fluoro-2-[6-(thiazolo[4,5-b]pyridin-2-yloxy)-1H-indol-3-ylmethyl]-1,2,3,4-tetrahydro-benzo[4,5]thieno[3,2-c]pyridine]
2 nM	23 nM	c1cnc2nc(Oc3ccc4c(CN5CCOCC5)c[nH]c4c3)sc2c1 [Example 40, 2-(3-Morpholin-4-ylmethyl-1H-indol-6-yloxy)-thiazolo[4,5-b]pyridine]
< 1 nM	27 nM	c1cnc2nc(Oc3ccc4c(CN5CCSCC5)c[nH]c4c3)sc2c1 [Example 42, 2-(3-Thiomorpholin-4-ylmethyl-1H-indol-6-yloxy)-thiazolo[4,5-b]pyridine]
6 nM	222 nM	O=C1C[C@@H](O)CN1C1CCN(Cc2c[nH]c3cc(Oc4nc5ccccc5s4)ccc23)CC1 [Example 44, (4R)-1-{1-[6-(Benzothiazol-2-yloxy)-1H-indol-3-ylmethyl]-piperidin-4-yl}-4-hydroxy-pyrrolidin-2-one]
6 nM	1340 nM	O=C(O)C1CCN(Cc2c[nH]c3cc(Oc4nc5ccccc5s4)ccc23)CC1 [Example 45, 1-[6-(Benzothiazol-2-yloxy)-1H-indol-3-ylmethyl]-piperidine-4-carboxylic acid]
15 nM	667 nM	O=C(O)CC1CCN(Cc2c[nH]c3cc(Oc4nc5ccccc5s4)ccc23)CC1 [Example 46, {1-[6-(Benzothiazol-2-yloxy)-1H-indol-3-ylmethyl]-piperidin-4-yl}-acetic acid]
21 nM	870 nM	O=C(O)C1CCCN(Cc2c[nH]c3cc(Oc4nc5ccccc5s4)ccc23)C1 (stereo not drawn) [Example 47, 1-[6-(Benzothiazol-2-yloxy)-1H-indol-3-ylmethyl]-piperidine-3-carboxylic acid]
